According to ChEMBL document CHEMBL1201862, “PubChem BioAssay data set” (2004):
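96-well plates; 48 h exposure; 5 concentrations. Endpoints by linear interpolation between flanking doses. Not reached: highest tested concentration assigned. Abbreviation: GI50, concentration required for 50% inhibition of growth.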 Calls of active or inactive are those of the source. Rule as the data show it: active = GI50 up to about 1.1 µM and inactive = higher.

Assays:
Assay in all cases: NCI tumour cell line growth inhibition, 48 h
HCT-15 = tested on: HCT-15
BT-549 = tested on: BT-549
Malme-3M = tested on: Malme-3M
SW-620 = tested on: SW-620
MDA-MB-435 = tested on: MDA-MB-435
RXF 393 = tested on: RXF 393
SF-539 = tested on: SF-539
786-0 = tested on: 786-0
SF-268 = tested on: SF-268
ACHN = tested on: ACHN
KM12 = tested on: KM12
UO-31 = tested on: UO-31
UACC-62 = tested on: UACC-62
PC-3 = tested on: PC-3
HT-29 = tested on: HT-29
EKVX = tested on: EKVX
Hs-578T = tested on: Hs-578T
HCC 2998 = tested on: HCC 2998
T47D = tested on: T47D
HCT-116 = tested on: HCT-116

Measured: GI50

CO[C@@H](c1ccccc1)[C@H](O)[C@](O)(c1ccccc1)P(=O)(OC)OC
> 100 µM: HCT-15
inactive: BT-549 47.6 µM | Malme-3M > 100 µM | SW-620 > 100 µM | MDA-MB-435 > 100 µM | RXF 393 > 100 µM | SF-539 > 100 µM | 786-0 > 100 µM | SF-268 > 100 µM | ACHN > 100 µM | KM12 > 100 µM | UO-31 > 100 µM | UACC-62 > 100 µM | PC-3 > 100 µM | HT-29 > 100 µM | EKVX > 100 µM | Hs-578T > 100 µM | HCC 2998 > 100 µM | T47D > 100 µM | HCT-116 > 100 µM

COC(=O)C1=C(C(=O)OC)SC2(S1)C(C(=O)OC)=C(C(=O)OC)Sc1c2ss/c1=N/C(C)(C)C
0.622 µM: HCT-15
inactive: BT-549 2.07 µM | Malme-3M 2.18 µM | MDA-MB-435 1.55 µM | SF-539 1.27 µM | 786-0 1.31 µM | SF-268 1.86 µM | ACHN 1.74 µM | KM12 1.57 µM | UO-31 1.92 µM | UACC-62 1.56 µM | PC-3 1.26 µM | HT-29 1.17 µM | EKVX 1.49 µM | Hs-578T 4.32 µM | T47D 1.41 µM
active: SW-620 0.622 µM | RXF 393 0.541 µM | HCC 2998 1.08 µM | HCT-116 0.769 µM

Oc1ccccc1/C=N/N1C(=S)N(C23CC4CC(CC(C4)C2)C3)C(=N\c2ccccc2)/C1=N/c1ccccc1
inactive: BT-549 38.9 µM | Malme-3M > 100 µM | SW-620 > 100 µM | MDA-MB-435 > 100 µM | RXF 393 82.8 µM | SF-539 > 100 µM | 786-0 > 100 µM | SF-268 > 100 µM | ACHN 50 µM | KM12 > 100 µM | UO-31 > 100 µM | UACC-62 > 100 µM | PC-3 8.38 µM | HT-29 29.6 µM | EKVX > 100 µM | Hs-578T > 100 µM | HCC 2998 > 100 µM | T47D 9.35 µM | HCT-116 14.1 µM
> 100 µM: HCT-15

C=C1C(=O)O[C@H]2[C@H]3O[C@@H](C[C@@H]12)[C@](C)(O)CCCC(C)=CCC[C@H]3C
active: BT-549 0.457 µM
7.35 µM: HCT-15
inactive: SW-620 5.13 µM | MDA-MB-435 3.86 µM | RXF 393 4.91 µM | SF-539 10.2 µM | 786-0 54.3 µM | SF-268 8.04 µM | ACHN 10.1 µM | KM12 14.1 µM | UO-31 11.4 µM | UACC-62 10.2 µM | PC-3 12.2 µM | HT-29 13.5 µM | EKVX 10.4 µM | Hs-578T 3.9 µM | HCC 2998 11.1 µM | T47D 19.1 µM | HCT-116 13.6 µM

O=c1[nH]c2nc(S)nc(S)c2[nH]1
> 100 µM: HCT-15
inactive: BT-549 > 100 µM | Malme-3M > 100 µM | SW-620 > 100 µM | MDA-MB-435 > 100 µM | RXF 393 > 100 µM | 786-0 > 100 µM | SF-268 > 100 µM | ACHN > 100 µM | KM12 > 100 µM | UO-31 > 100 µM | UACC-62 > 100 µM | PC-3 > 100 µM | HT-29 > 100 µM | EKVX > 100 µM | Hs-578T > 100 µM | HCC 2998 > 100 µM | T47D > 100 µM | HCT-116 > 100 µM

COc1ccc2c(-c3ccc(O)cc3)c(Oc3ccc(Cl)cc3)c(=O)oc2c1
inactive: BT-549 8.75 µM | Malme-3M 4.76 µM | SW-620 5.35 µM | MDA-MB-435 7.43 µM | RXF 393 8.34 µM | SF-539 8.26 µM | 786-0 7.85 µM | SF-268 8.07 µM | ACHN 8.11 µM | KM12 5.75 µM | UO-31 1.14 µM | UACC-62 4.98 µM | PC-3 7.69 µM | EKVX 3.14 µM | Hs-578T 5.62 µM | HCC 2998 10.8 µM | T47D 5.26 µM | HCT-116 6.46 µM
4.66 µM: HCT-15

CCOP(=O)(CC1OC(CO)C(O)C1O)OCC (configuration not stated)
> 100 µM: HCT-15
inactive: BT-549 > 100 µM | Malme-3M > 100 µM | SW-620 > 100 µM | MDA-MB-435 > 100 µM | RXF 393 > 100 µM | SF-539 > 100 µM | 786-0 > 100 µM | SF-268 > 100 µM | ACHN > 100 µM | KM12 > 100 µM | UO-31 > 100 µM | UACC-62 > 100 µM | PC-3 > 100 µM | EKVX > 100 µM | Hs-578T > 100 µM | HCC 2998 > 100 µM | T47D > 100 µM | HCT-116 > 100 µM

Cc1nc(C)c(C(=O)NNC(=O)Cc2ccccc2)cc1C(=O)NNC(=O)Cc1ccccc1
inactive: BT-549 > 100 µM | SW-620 > 100 µM | MDA-MB-435 > 100 µM | RXF 393 > 100 µM | SF-539 > 100 µM | 786-0 > 100 µM | SF-268 > 100 µM | ACHN > 100 µM | KM12 > 100 µM | UO-31 > 100 µM | UACC-62 > 100 µM | PC-3 > 100 µM | HT-29 > 100 µM | EKVX > 100 µM | Hs-578T > 100 µM | HCC 2998 > 100 µM | T47D > 100 µM | HCT-116 > 100 µM
> 100 µM: HCT-15

O=C1c2cc(Cl)ccc2-n2c(noc2=O)C2CSCN12 (configuration not stated)
inactive: BT-549 > 100 µM | Malme-3M > 100 µM | SW-620 > 100 µM | MDA-MB-435 > 100 µM | RXF 393 > 100 µM | 786-0 > 100 µM | SF-268 > 100 µM | ACHN > 100 µM | KM12 > 100 µM | UO-31 > 100 µM | UACC-62 > 100 µM | PC-3 > 100 µM | HT-29 > 100 µM | EKVX > 100 µM | Hs-578T > 100 µM | HCC 2998 > 100 µM | T47D > 100 µM | HCT-116 > 100 µM
> 100 µM: HCT-15

O=P1(N(CCCl)CCCl)Oc2ccc(Cl)cc2C(C(Cl)(Cl)Cl)c2cc(Cl)ccc2O1 (configuration not stated)
inactive: BT-549 29.8 µM | SW-620 11.2 µM | MDA-MB-435 18.5 µM | RXF 393 12.7 µM | SF-539 14.8 µM | 786-0 12.4 µM | SF-268 28.2 µM | ACHN 15.5 µM | KM12 13.1 µM | UO-31 10.9 µM | UACC-62 12.6 µM | PC-3 4.38 µM | HT-29 5.48 µM | EKVX 18.6 µM | Hs-578T 13.6 µM | HCC 2998 10.9 µM | T47D 20 µM | HCT-116 4.55 µM
9.57 µM: HCT-15

O=c1oc2c(ccc3c(O)cccc32)c2c1CCCC2
inactive: BT-549 15.1 µM | Malme-3M 68.9 µM | SW-620 > 100 µM | MDA-MB-435 > 100 µM | RXF 393 14.5 µM | SF-539 22.2 µM | 786-0 33.4 µM | SF-268 15 µM | ACHN 26.8 µM | KM12 > 100 µM | UO-31 21.1 µM | UACC-62 4.71 µM | PC-3 > 100 µM | HT-29 > 100 µM | EKVX 33.8 µM | Hs-578T 7.46 µM | HCC 2998 5.61 µM | T47D 80.9 µM | HCT-116 > 100 µM
